Data on 70 molecules can be found in PubChem BioAssay AID179 (DTP/NCI, 2004).

Active and inactive are the calls of the source.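 The calls were made as follows: active = compounds giving half or more protection of infected cells from virus-caused growth loss, again on retest; inactive = the rest.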 Bounds are passed on as bounds.

This assay relates to CEM cells HIV-1 protection, formazan growth assay. The experiment in a line: NCI AIDS Antiviral Assay. As to conditions: for IC50: measured here: growth of uninfected CEM cells. The method in brief: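 Screen of anti-HIV-1 activity in human CEM cells using a formazan-based growth measurement at five drug concentrations. Hits with 50% or greater protection were repeated, and confirmation required reproducible complete protection.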

Broadly, the EC50 is the concentration that produces a half-maximal response. For orientation: IC50 means the concentration needed to halve the response being measured. Higher therefore signals lower potency. With `CC1OC(OC2C(CO)OC(O[C@H]3CC[C@@]4(C)C(=CC[C@H]5[C@@H]6C[C@@H]7O[C@](O)(CC[C@@H](C)COC8OC(CO)C(O)C(O)C8O)[C@@H](C)[C@@H]7[C@@]6(C)CC[C@@H]54)C3)C(OC3OC(C)C(O)C(O)C3O)C2O)C(O)C(O)C1O` (stereo partly specified), the EC50 was over 200 µM and the IC50 amounted to 1.86 µM.
Take `C=C1C[C@@H]2O[C@H]3[C@H]4[C@@H](C[C@@H](C)[C@@H](OC(C)=O)[C@H]42)[C@@H](C)CO[C@@]3(C)[C@H](OC(=O)CCCCCCC)CC1=O`: the EC50 was over 200 µM and the IC50 is 10 µM.
Turning to `CC(C)(C)SSC(C)(C)C`, the EC50 was over 200 µM and the IC50 is over 200 µM.
Regarding `O=C(/C=C/c1ccc(C(F)(F)F)cc1)c1c([O-])on[n+]1-c1ccccc1`, the outcome was inactive.
Turning to `Cn1c(=O)c2c(nc(CCCCCc3nc4c(c(=O)n(C)c(=O)n4C)n3C)n2C)n(C)c1=O`, the EC50 was over 200 µM and the IC50 is over 200 µM.
Regarding `COc1cc(C2c3cc4c(cc3[C@H](NS(C)(=O)=O)C3COC(=O)[C@H]23)OCO4)cc(OC)c1OC` (stereo partly specified), the outcome was inactive.
For `CCN1CCC(O)(c2ccc(OC)cc2)C(C(=O)c2ccc(OC)cc2)C1` (stereo unspecified), the EC50 is over 550 µM and the IC50 came to 14.5 µM.
In the case of `CC(C)COP(=O)(OCC(C)C)C(NS(=O)(=O)c1ccccc1)(C(F)(F)F)C(F)(F)F`, the outcome was inactive.
As to `N#Cc1nc(C2OC(COC(=O)c3ccccc3)C(OC(=O)c3ccccc3)C2OC(=O)c2ccccc2)oc1N` (stereo unspecified), the EC50 is over 18.2 µM and the IC50 came to 9.77 µM.
Turning to `CC(=O)CSc1sc(C(C)=O)c(N)c1C#N`, the EC50 was over 200 µM and the IC50 is over 200 µM.
With `CC(=O)c1ccc2c(c1)oc(=O)n2CCN(C)C`, the EC50 was over 200 µM and the IC50 worked out at 141 µM.
Taken in the same sequence, the figures for `CC(=O)OCC1OC(SC2=NC(=O)/C(=C/c3ccccc3)S2)C(OC(C)=O)C(OC(C)=O)C1OC(C)=O` (stereo unspecified) were over 200 µM and 32.4 µM.
As for `CCCN(CCC)c1cc2c(cc1F)c(=O)c(C(=O)O)cn2-c1ccc(N2CCN(C)CC2)cn1`, the EC50 was over 200 µM and the IC50 came out at 14.8 µM.
On the same counts, the results for `Cc1ccc2[nH]c3nc4cc(C)c(C)cc4nc3c2c1` are over 7.24 µM and over 7.24 µM.
With `Cn1c(=O)c2nc3c4ccccc4c(=O)n(C)c3nc2n(C)c1=O`, the outcome was inactive.
Regarding `CCN=C(N)SCCS(=O)(=O)O`, the EC50 was over 200 µM and the IC50 is over 200 µM.
As for `CNn1c(C)n[nH]c1=O`, the EC50 is over 200 µM and the IC50 was over 200 µM.
Take `O=C(NC1CCC(=O)N1C(=O)OCc1ccccc1)OCc1ccccc1` (stereo unspecified): the EC50 is over 200 µM and the half-maximal inhibitory concentration (IC50) was over 200 µM.
As for `C#CCN1CCCC(O)C1` (stereo unspecified), the result was inactive.
Regarding `O=C(N/N=C\c1ccncc1)c1ccncc1`, the EC50 was over 200 µM and the IC50 was over 200 µM.
`Cc1cc(S(=O)(=O)Nc2nc(N)nc(N3CCCCC3)n2)c(S)cc1Cl`: the EC50 is over 200 µM and the IC50 was over 200 µM.
For the molecule `CC1(C)OC(=O)C(=Cc2ccccc2Br)C(=O)O1`, the EC50 was over 417 µM and the IC50 was found to be 1.29 µM.
Turning to `O=C1CCC2(c3ccc(Cl)cc3)Nc3cc(Cl)ccc3N12` (stereo unspecified), the outcome was inactive.
`CCCCn1c(=O)[nH]c2c(N)ncnc21`: the EC50 is over 200 µM and the IC50 was over 200 µM.
Consider `CC1=C(O[Si](C(C)C)(C(C)C)C(C)C)C2CC1(OS(=O)(=O)C(F)(F)F)[C@H]1C(=O)N(c3ccccc3)C(=O)[C@@H]21` (stereo partly specified), for which the EC50 is over 4.79 µM and the IC50 is over 4.79 µM.
On to `S=P(N1CC1)(N1CC1)N1CC1`, for which the EC50 is over 1320 µM and the IC50 came out at 3.16 µM.
Taken in the same sequence, the figures for `N#Cc1cccc(/C=C2\Cc3ccccc3C2=O)c1` were over 5.89 µM and over 5.89 µM.
Taken in the same sequence, the figures for `CN1C(=O)CC(Sc2ccccc2)c2ccccc21` (stereo unspecified) were over 200 µM and 36.3 µM.
For `Cc1cc[n+](CC(=O)CC([O-])(C(F)(F)F)C(F)(F)F)cc1`, the EC50 is over 200 µM and the IC50 is over 200 µM.
In the case of `CC(=O)NNC(=S)/N=C\C(C(=O)c1ccccc1)=C(/O)c1ccccc1`, the EC50 is over 200 µM and the IC50 was over 200 µM.
Turning to `CCOC(=O)c1nc2ccccc2nc1Oc1ccc(C#N)cc1`, the EC50 was over 200 µM and the 50% inhibitory concentration (IC50) was over 200 µM.
Turning to `c1ccc(CN2CCCCC(Sc3ccccc3)CC2)cc1` (stereo unspecified), the EC50 was over 43.7 µM and the IC50 was 34.7 µM.
On the same counts, the results for `COCO[C@@H]1C[C@H]2C(=O)Nc3ccccc3C(=O)N2C1` are over 200 µM and 38 µM.
Taken in the same sequence, the figures for `N#CCCN(CCCCN(CCC#N)C(=O)Nc1ccccc1)C(=O)Nc1ccccc1` were over 200 µM and over 200 µM.
For the molecule `N#CC(c1cc2c(cc1Br)OCO2)N1CCOCC1` (stereo unspecified), the EC50 is over 200 µM and the IC50 came to 9.77 µM.
Turning to `CCOC(=O)CN(Cn1cncn1)Cn1cncn1`, the EC50 is over 200 µM and the IC50 was found to be 28.8 µM.
Regarding `COc1ccc(N2C(=O)C3c4[nH]c5ccccc5c4C4CCCCCCCCCCC4C3C2=O)cc1` (stereo unspecified), the EC50 was over 5.62 µM and the IC50 is over 5.62 µM.
As for `CN1CC2=C(NC(=S)NC2c2ccccc2)/C(=C/c2ccccc2)C1` (stereo unspecified), the EC50 was 19.1 µM and the IC50 is 85.1 µM.
Regarding `O=C(CCC(=O)Nc1cccc(C(F)(F)F)c1)CC(=O)c1ccc2ccccc2c1`, the result was inactive.
On the same count and under the same terms, the same measure for `Nc1nc(Cl)n2nc[n+](C3C=CC(=O)CC3)c2n1` (stereo unspecified): “inactive”.
Turning to `CN(CC(=O)Nc1ccccc1C(=O)O)c1ccccc1`, the EC50 was over 200 µM and the IC50 came to 69.2 µM.
As to `COC(=O)c1cc(C(=CCC2OCCO2)c2cc(Cl)c(OC)c(C(=O)OC)c2)cc(Cl)c1OC`, the EC50 is over 52.5 µM and the 50% inhibitory concentration (IC50) was found to be 38.9 µM.
Regarding `CC1=NN(C(=O)c2ccccc2Br)C(=O)C1N=Nc1ccccc1C(=O)O` (stereo unspecified), the outcome was inactive.
Consider `CCCCNC1=C(C(=O)OCC)C(=O)CO1`, for which the EC50 was over 794 µM and the IC50 was 447 µM.
Taken in the same sequence, the figures for `CN(C)CCCN1C(=S)N(CCCN(C)C)c2c3cc(O)ccc3nc3c([N+](=O)[O-])ccc1c23` were over 2 µM and 0.417 µM.
`Cc1ccc(NCCN(C)C)c2c(=O)c3cc(O)ccc3oc12`: the EC50 was over 155 µM and the IC50 amounted to 1.02 µM.
In the case of `Cc1c(-c2ccc(-c3ccccc3F)cc2)nc2ccc(F)cc2c1C(=O)O`, the EC50 was over 631 µM and the IC50 was found to be 0.2 µM.
For `CC1(C)OC(=O)[C@@](C)([C@H](O)c2ccccc2)O1`, the result was inactive.
As to `O=C(NCc1ccccc1)C1C(=O)C(=O)N(Cc2ccccc2)C1=O` (stereo unspecified), the EC50 was over 269 µM and the concentration for half-maximal inhibition (IC50) is over 269 µM.
As for `COc1cc2c(cc1OC)C(Cc1ccc(OC)c(OC)c1Oc1ccccc1)N(C)CC2` (stereo unspecified), the outcome was inactive.
Consider `C[C@H](CCC(=O)O[C@@H]1CC[C@@]2(C)C(CC[C@H]3[C@@H]4CC[C@H]([C@H](C)CCc5nc6ccccc6[nH]5)[C@@]4(C)CC[C@@H]32)C1)[C@H]1CC[C@H]2[C@@H]3CCC4C[C@H](O)CC[C@]4(C)[C@H]3CC[C@]12C` (stereo partly specified), for which the EC50 is over 100 µM and the IC50 is over 100 µM.
Consider `O=C(CCC(=O)OCC1OC(O)(CC2OC(CO)C(O)C(O)C2O)C(O)C1O)OCc1ccccc1` (stereo unspecified), for which the EC50 is over 200 µM and the IC50 was over 200 µM.
On to `O=C1c2ccccc2Sc2ccccc2N1CCCN1CCN(c2ccc(F)cc2)CC1`, for which the EC50 was over 200 µM and the IC50 is 33.9 µM.
Turning to `CCOC(=O)C1(C/C=C\CBr)CCCCCCCCCCC1=O` (stereo unspecified), the EC50 is over 200 µM and the IC50 was determined as 0.933 µM.
Taken in the same sequence, the figures for `COc1cc(C2C(Cl)C(=O)N2NC(=O)Cc2ccccc2)ccc1O` (stereo unspecified) were over 72.4 µM and over 72.4 µM.
Take `CCOc1ccc(N=Nc2c(-c3ccccc3)nn(C(=O)CC(=O)Nc3ccccc3Cl)c2-c2ccccc2)cc1`: the EC50 was over 33.1 µM and the IC50 is over 33.1 µM.
As to `c1ccc(CCN(CCc2ccccn2)CCc2ccccn2)cc1`, the result was inactive.
On to `CC(=O)/C(=C/N1CC(=O)NC1=S)C(=O)Nc1ccc([N+](=O)[O-])cc1`, for which the EC50 was over 200 µM and the IC50 amounted to 155 µM.
For the molecule `O=C1[O][Bi]23[O]C(=O)C([O]2)C1[O]3`, the EC50 is over 36.3 µM and the IC50 is over 36.3 µM.
Turning to `C/C(=N/N=C(\[O-])c1ccncc1)C(F)(F)F.C/C(=N\N=C(/[O-])c1ccncc1)C(F)(F)F.[Ni+2]`, the EC50 is over 200 µM and the IC50 stood at 89.1 µM.
Taken in the same sequence, the figures for `Cc1cc(=O)oc2c(CNC(CO)C(=O)O)c(O)ccc12` (stereo unspecified) were over 200 µM and over 200 µM.
Consider `CC1CCC2(OCCO2)[C@]2(C)CC(O)C(=O)C=C12` (stereo partly specified), for which the result was inactive.
On to `O=C1C(=O)c2ccccc2C(O)=C1C(C1=C(O)c2ccccc2C(=O)C1=O)c1ccc(Cl)cc1Cl`, for which the EC50 was over 200 µM and the IC50 is 16.2 µM.
For the molecule `C=CCC(C)(C(=O)NCCC)C(=O)c1ccccc1O` (stereo unspecified), the outcome was inactive.
As to `C=C1C[C@@H]2O[C@H]3[C@H]4[C@@H](C[C@@H](C)[C@@H](OC(C)=O)[C@H]42)[C@@H](C)CO[C@@]3(C)[C@H](OC(=O)CCCCCCC)C[C@H]1O`, the EC50 was over 200 µM and the IC50 turned out to be 11 µM.
As to `CC(=O)N(CCc1ccccc1)C(C#N)c1ccc(OCCCCCCCCCCOc2ccc(C(C#N)N(CCc3ccccc3)C(C)=O)cc2)cc1` (stereo unspecified), the EC50 is over 100 µM and the IC50 was over 100 µM.
For the molecule `Cc1cn(C(Cc2ccccc2)OCCO)c(=O)[nH]c1=O` (stereo unspecified), the EC50 is over 200 µM and the IC50 was over 200 µM.
Regarding `N#Cc1cc2c(n(C3OC(CO)C(O)C(O)C3O)c1=S)CCCCC2` (stereo unspecified), the EC50 was over 200 µM and the IC50 was over 200 µM.
Regarding `O=C1NC(O)CCN1C1OC(CO)C(O)C1O` (stereo unspecified), the EC50 was over 200 µM and the IC50 was over 200 µM.
As to `COc1cc(/C=C2\CCC/C(=C\c3cc(OC)c(O)c(OC)c3)C2=O)cc(OC)c1O`, the EC50 was over 200 µM and the IC50 came to 0.933 µM.
